Experimental data taken from article PMC4336141, “Repurposing Auranofin as a Lead Candidate for Treatment of Lymphatic Filariasis and Onchocerciasis” (PLoS Neglected Tropical Diseases, 2015).

Assays:
adult female O. ochengi = assay: Transmission electron microscopy of treated adult female O. ochengi; assay type: cell-based, Onchocerca ochengi; conditions: 10 μM, 7 days, vs untreated
Protocol: Adult female B. pahangi worms were incubated with either 1 μM, 0.3 μM, or 0.1 μM auranofin, 10 μM flubendazole (as a positive control), or 1% DMSO overnight, then cut into 3 segments separating the anterior, middle and posterior sections. The middle sections were further cut into 1 mm sized pieces in fixative (2.5% glutaraldehyde and 2% paraformaldehyde in 0.1 M sodium cacodylate buffer, pH 7.3–7.4) and stored at 4°C. Middle sections were subsequently treated with 1% tannic acid for 1 hour, followed by three buffer washes before post fixation staining with 2% osmium tetroxide for 1 hour. The samples were washed three times in buffer before dehydration in an ethanol series. Worm sections were then infiltrated with propylene oxide, embedded in epon 812 resin and polymerized in a vacuum oven at 60°C overnight. Ultrathin sections were cut using an RMC MTX ultramicrotome with a Diatome diamond knife followed by post staining of the grids with saturated ethanolic uranyl acetate and Reynolds lead citrate. Samples were imaged on a FEI Tecnai 12 spirit TEM operated at 80 kV. A similar procedure was performed on adult female O. ochengi worm masses that were cultured for 7 days with 10 μM auranofin before fixation of cut pieces of the adult female mass. Untreated adult female masses cultured for 7 days and fixed by the same procedure served as the control.

[1] = test system: endogenous Brugia thioredoxin reductase; assay: Thioredoxin reductase activity of lysates of worms recovered from gerbils treated in vivo
Protocol: Thioredoxin reductase activity of worm lysates was assayed using female B. malayi treated in vitro with either 0.3 μM, 0.1 μM, or 0.03 μM auranofin or 1% DMSO. After 5 hours of treatment, worm motility was measured using the Worminator, and then worms (24 in each group) were pooled, washed three times in PBS, and lysed by douncing in a glass homogenizer in assay buffer (Abcam Thioredoxin Reductase Assay kit, ab83463) with 1 mM PMSF. The crude lysates were centrifuged at 10,000 rcf for 15 minutes at 4°C to pellet insoluble material. The total protein concentrations of soluble lysates were measured using the Bradford assay. The soluble lysates were incubated for 20 minutes in assay buffer or assay buffer with a proprietary thioredoxin reductase specific inhibitor before adding a specific substrate, DTNB (5, 5′-dithiobis (2-nitrobenzoic) acid), and measuring activity at 20 second intervals for 40 minutes using the SpectraMax Plus Microplate Reader (Molecular Devices, Sunnyvale, CA) at λ = 412 nm. Lysates were tested in duplicate. TrxR activity was calculated based on the linear amount of TNB produced per minute per mg of total protein and adjusted for background activity from enzymes other than TrxR in the lysates.
Thioredoxin reductase activity was also analyzed in worms that were treated with auranofin or vehicle in vivo. […]

[2] = test system: cysteine protease cathepsin B; parameters: method as in PMID 16789749; conditions: cited from earlier work
L. loa microfilariae = assay: Loa loa microfilariae motility in vitro; assay type: cell-based; conditions: Day 5
Protocol: Loa loa microfilariae were purified from the blood of a heavily infected subject (having approximately 10,000 microfilariae/mL of blood) using Percoll (GE Healthcare, Piscataway, NJ) gradient centrifugation. Venous blood (10 mL) was collected from consenting, infected individuals in an EDTA tube. The blood was layered on a step-wise Percoll gradient (46% and 43% Percoll prepared in CCM) followed by centrifugation at 400 rcf for 20 minutes. The L. loa microfilariae were recovered in the 43% layer, washed 3 times in CCM and counted.
Microfilariae (10–15 per well) were cultured in 96-well culture plates in duplicate under the same conditions and drug concentrations as were used for the adult O. ochengi, except that 10 μg/mL ivermectin was used as a positive control. Microfilariae viability was visually scored based on motility reduction using the same scale described above for adult male O. ochengi. Scores were recorded every 24 hours after the addition of drugs for 5 days using an inverted microscope.

adult B. pahangi = assay: Adult Brugia pahangi worm motility assay (Worminator) in vitro; assay type: cell-based; conditions: for IC50: B. pahangi, Adult, Day 3, motility
Protocol: Adult female and male Brugia (B. malayi and B. pahangi) were shipped from TRS Labs Inc., Athens, GA and assayed using methods described by Marcellino et al. (2012). Individual females were placed in each well of a 24-well plate with media (RPMI-1640 with 25 mM HEPES, 2.0 g/L NaHCO3, 5% heat inactivated FBS, and 1X Antibiotic/Antimycotic solution). Excess media was removed from plates using a Biomek FxP, leaving 500 μL of media per well. Initial screening of a library of FDA-approved compounds, compiled by the Small Molecule Discovery Center at the University of California San Francisco, was conducted at 10 μM per compound, and 1% DMSO was used as a negative control. All drugs including auranofin (Enzo Life Sciences, Farmingdale, NY) were dissolved in DMSO (Sigma-Aldrich, St. Louis, MO) and 10 mM stock solutions were stored at -20°C. Four worms were used as replicates for each concentration and worm plates were kept in a 37°C, 5% CO2 incubator for four days.
To determine the effect of a compound on worm motility, individual worm movements were counted as the number of pixels displaced per second by each worm in each well using the Worminator. Each plate of worms was video recorded for approximately 60 seconds, and mean movement units (MMUs) were determined for individual worms. Percent inhibition of motility was calculated by dividing the MMUs of the treated worms by the control average MMUs, subtracting the value from 1.0, flooring the values to zero and multiplying by 100%. Videos were recorded for 4 days, including the first day of the assay (Day 0). IC50 determinations were conducted at 10 μM, 3 μM, 1 μM, 0.3 μM, 0.1 μM and 0.03 μM, with 1% DMSO used as a control. IC50 assays were repeated at the same concentrations and at six point, three-fold dilutions from 1 μM to 0.003 μM or 3 μM to […] to ensure that activity was consistent between assays. Prism 4.0 was used to calculate IC50 values using a non-linear regression curve fit. The means of all IC50s with R^2 values greater than or equal to 0.7 are reported.

SMILES: CC[PH](CC)(CC)[Au][S][C@@H]1O[C@H](COC(C)=O)[C@@H](OC(C)=O)[C@H](OC(C)=O)[C@H]1OC(C)=O [auranofin, 2,3,4,6-tetra-O-acetyl-1-thio-beta-D-glucopyranosato-S (triethylphosphine) gold]
- ultrastructure (TEM) of adult female O. ochengi (adult female O. ochengi): Numerous vacuoles with inclusion bodies were observed in the muscle tissue below the hypodermal chord
- Thioredoxin reductase activity, percent of vehicle control ([1]; worms collected 16 days after the last dose from treated gerbils): 51%
- reduction of endogenous thioredoxin reductase activity vs vehicle ([1]; worms removed 16 days after the last dose from gerbils treated 28 days): 49%
- IC50 [2]: ~250 µM
- IC50 (L. loa microfilariae): 12.8 µM
- IC50 (adult B. pahangi; Female): 500 nM
- IC50 (adult B. pahangi; Male): 100 nM
- inhibition of motility (adult B. pahangi; female B. pahangi, 3 μM, within 18 hours of incubation): 97%
